{"source": "patent US7645603B2", "about": "“Cells having cardiac glycoside resistance” (Avaris AB, priority 2003, dated 2010)", "key": {"[1]": {"tested_on": "HeLa cells", "assay": "Ouabain dose response assay in transfected HeLa cells, WST-1 cell proliferation reagent", "format": "cell-based, human", "details": "10-500 μM ouabain, 24 hours", "protocol": "(§1) For transfections, Fugene 6 reagent (Roche Boeringer Mannheim, Germany) was used according to the manufacturer's instructions. Briefly, 2 μg of plasmid DNA per 10^5 cells were complexed with 5 μl of the reagent in a 100 μl volume of cell culture medium DMEM Glutamax and added to cells after 15 min of incubation. Ouabain (Sigma, St. Louis, Mo., USA) was dissolved in DMEM as a stock solution of 10 mM. For selection experiments 10-500 μM was used. Ouabain was added to the cells at 24 h after transfection. At 48 hours post transfection the cells were trypsinized and transferred to ouabain-free medium. Cell survival was quantified spectrophoto-metrically using the WST-1 cell proliferation reagent (Roche) according to the manufacturer's instructions."}, "[2]": {"tested_on": "COS-7 cells", "assay": "Ouabain toxicity assay, transiently transfected COS-7 cells, cell viability", "format": "cell-based", "details": "wild type COS-7, 10 μM ouabain", "protocol": "COS-7 cells (ATCC, Manassas, Va.) were cultured and transfected as above. After 48 h incubation in 10 μM ouabain, the cells were washed twice in PBS (Gibco) and incubated for 15 min in 0.025% porcine trypsine in saline (Sigma). The trypsin was inactivated by FBS addition. The cells were re-incubated in 10 μM ouabain. Cell viability was documented following 48 h incubation."}, "[3]": {"tested_on": "HeLa cells", "assay": "Ouabain toxicity assay, transiently transfected HeLa cells, cell viability", "format": "cell-based, human", "details": "10 μM ouabain", "protocol": "HeLa cells (ATCC, Manassas, Va.) were cultured in DMEM Glutamax with 10% heat-inactivated fetal bovine serum (FBS). For transfections, Fugene 6 reagent (Roche Boehringer Mannheim, Germany) was used according to manufacturer's description. Briefly, 2 μg of plasmid DNA per 10^5 cells were complexed with 5 μl of the reagent in a 100 μl volume of cell culture medium and added to cells after 15 min of incubation. After 24 h, ouabain was added to each well to a final concentration of 10 μM. Cell viability was documented following 24 h incubation.\nas §1"}}}
{"smiles": "C[C@@H]1O[C@@H](O[C@H]2C[C@@H](O)[C@]3(CO)[C@H]4[C@H](O)C[C@]5(C)[C@@H](C6=CC(=O)OC6)CC[C@]5(O)[C@@H]4CC[C@]3(O)C2)[C@H](O)[C@H](O)[C@H]1O", "note": "[ouabain]", "values": [{"measurement": "effect of ouabain on control and un-transfected cells (WST-1)", "setting": "[1]", "value": "eliminated"}, {"measurement": "ouabain induced cell death of wild type cells", "setting": "[2]", "value": "induces cell death"}, {"measurement": "ouabain induced cell death of wild type cells", "setting": "[3]", "value": "induces cell death"}]}
